# System: Adoxophyes orana fasciata
# Assay: Test Example 7: sprayed apple tree, Adoxophyes orana fasciata larvae released
# Details: in vivo
# Method: (§1) The formulations of Compounds of Present Invention 1 to 5, 8 to 14, 18, 19, 25, 26, 54, 55, 60, 68 to 74, 76 to 78, 85, 86, 88 and 90 and Intermediate Compounds M6-8 to M6-13 as obtained in Formulation Example 5 were diluted with water, so as to have a concentration of the active ingredient of 500 ppm, to prepare a diluted liquid for test.
# On the other hand, an apple tree was planted in a plastic cup, and grown until the seventh-eighth true leaf was spread. To the apple tree was sprayed in an amount of 20 mL/cup of the diluted liquid for test. After the drug solution was dried, 60 first-instar Adoxophyes orana fasciata were released, and the plastic cup the bottom of which was cut off and on which a filter paper was put was upside-down and covered. After 7 days, the number of surviving insects was counted, and the mortality was calculated according to the following equation:
# Mortality (%)=(Number of dead insects/Number of tested insects)×100.
row,Compound,mortality [%]
1,"CCSc1cc(C(F)(F)F)ccc1C(=O)Nc1ccc(C(F)(F)F)cc1 [Intermediate Compound M6-1, 2-ethylsulfanyl-4-trifluoromethyl-N-(4-trifluoromethyl-phenyl)-benzamide]",100
2,CCS(=O)(=O)c1cc(C(F)(F)F)ccc1C(=O)N(C)c1ccc(C(F)(F)C(F)(F)F)cc1 [compound 10],100
3,CCSc1ccccc1C(=O)N(C)c1ccc(C(F)(F)C(F)(F)F)cc1 [compound 18],100
4,CCSc1ccccc1C(=O)N(C)c1ccc(SC(F)(F)F)cc1 [compound 19],100
5,CCS(=O)(=O)c1ccccc1C(=O)N(C)c1ccc(C(F)(F)C(F)(F)F)cc1 [compound 25],100
6,CCS(=O)(=O)c1ccccc1C(=O)N(C)c1ccc(SC(F)(F)F)cc1 [compound 26],100
7,CCSc1cc(C(F)(F)F)ccc1C(=O)N(C)c1ccc(OC(F)(F)F)c(Br)c1 [compound 60],100
8,CCSc1cc(C(F)(F)F)ccc1C(=O)N(C)c1ccc(C(F)(F)F)c(Cl)c1 [compound 68],100

# System: Musca domestica
# Assay: Test Example 8: treated filter paper with sucrose bait, Musca domestica
# Format: in vivo
# Details: 0.7 ml on filter paper, female imagoes of Musca domestica, after 24 hours
# Method: Each of formulations of Compounds of Present Invention 1 to 5, 10, 18, 19, 25, 26, 60 and 68 and Intermediate Compound M6-1 as obtained in Formulation Example 5 was diluted with water, so as to have a concentration of the active ingredient of 500 ppm, to prepare a diluted liquid for test.
# (§2) A filter paper having a diameter of 5.5 cm was spread on the bottom of a polyethylene cup having the same diameter and 0.7 ml of the diluted liquid for test was added dropwise onto the filter paper, and 30 mg of sucrose was uniformly placed as bait. Into the polyethylene cup, 10 female imagoes of Musca domestica were released, and the cup was sealed with a lid. After 24 hours, the life and death of Musca domestica was examined, and the mortality was calculated.
row,Compound,mortality at 500 ppm [%]
1,"CCSc1cc(C(F)(F)F)ccc1C(=O)Nc1ccc(C(F)(F)F)cc1 [Intermediate Compound M6-1, 2-ethylsulfanyl-4-trifluoromethyl-N-(4-trifluoromethyl-phenyl)-benzamide]",100

# System: Blattella germanica
# Assay: Test Example 9: treated filter paper with sucrose bait, Blattella germanica
# Format: in vivo
# Details: 500 ppm, 0.7 ml on filter paper, male imagoes of Blattella germanica, after 6 days
# Method: The formulations of Compounds of Present Invention 3, 10 and 11 as obtained in Formulation Example 5 were diluted with water, so as to have a concentration of the active ingredient of 500 ppm, to prepare a diluted liquid for test.
# as §2, with “2 male” for “10 female”, “Blattella germanica” for “Musca domestica”, “6 days,” for “24 hours,”
row,Compound,mortality [%]
1,CCS(=O)(=O)c1cc(C(F)(F)F)ccc1C(=O)N(C)c1ccc(C(F)(F)C(F)(F)F)cc1 [compound 10],100
2,CCS(=O)(=O)c1cc(C(F)(F)F)ccc1C(=O)N(C)c1ccc(SC(F)(F)F)cc1 [compound 11],100

# System: Culex pipiens pallens
# Assay: Test Example 10: Culex pipiens pallens larvae in treated water
# Format: in vivo
# Details: 24 h; active ingredient concentration 3.5 ppm in water, last-instar larvae of Culex pipiens pallens, one day later
# Method: as §1, with “11, 13,” for “14,”, “44, 53 to” for “54,”, “55, 59,” for “55,”, “78, 86” for “76”, “to” for “to 78, 85, 86,”, “M6-3, M6-4, M6-11, M6-12 and M6-23” for “M6-8 to M6-13”
# 0.7 ml of the diluted liquid for test was added to 100 ml of ion-exchanged water (active ingredient concentration: 3.5 ppm). 20 last-instar larvae of Culex pipiens pallens were released into the solution. One day later, the life and death of the Culex pipiens pallens was examined, and the mortality of the pest was calculated.
row,Compound,mortality at 3.5 ppm [%]
1,"CCSc1cc(C(F)(F)F)ccc1C(=O)Nc1ccc(C(F)(F)C(F)(F)F)cc1 [Intermediate Compound M6-3, 2-ethylsulfanyl-N-(4-pentafluoroethyl-phenyl)-4-trifluoromethyl-benzamide]",≥ 95
2,"CCSc1cc(C(F)(F)F)ccc1C(=O)Nc1ccc(SC(F)(F)F)cc1 [Intermediate Compound M6-4, 2-ethylsulfanyl-N-(4-trifluoromethylsulfanyl-phenyl)-4-trifluoromethyl-benzamide]",≥ 95
